Results from patent publication US7626031B2, “Substituted 3-(diarylmethylene)indolin-2-ones and methods of their use” (Symphony Evolution, Inc., priority 2002, dated 2009).

Columns and labels:
IRK = IRK (Homo sapiens, UniProt P06213); assay: Kinase assay, IRK; format: biochemical
Protocol: (§1) Kinase activity and compound inhibition are investigated using one or more assay formats. The ATP concentrations for each assay are selected to be close to the Michaelis-Menten constant (KM) for each individual kinase. Dose-response experiments are performed at 10 different inhibitor concentrations in a 384-well plate format. […] Exemplary kinase assays are described below. KDR Assay

EphA2 = EphA2 (Homo sapiens, UniProt P29317); assay: Kinase assay, EphA2 (33P-ATP incorporation or luciferase-coupled ATP consumption); format: biochemical
EphA2, sequence (P29317 24-976, species assumed): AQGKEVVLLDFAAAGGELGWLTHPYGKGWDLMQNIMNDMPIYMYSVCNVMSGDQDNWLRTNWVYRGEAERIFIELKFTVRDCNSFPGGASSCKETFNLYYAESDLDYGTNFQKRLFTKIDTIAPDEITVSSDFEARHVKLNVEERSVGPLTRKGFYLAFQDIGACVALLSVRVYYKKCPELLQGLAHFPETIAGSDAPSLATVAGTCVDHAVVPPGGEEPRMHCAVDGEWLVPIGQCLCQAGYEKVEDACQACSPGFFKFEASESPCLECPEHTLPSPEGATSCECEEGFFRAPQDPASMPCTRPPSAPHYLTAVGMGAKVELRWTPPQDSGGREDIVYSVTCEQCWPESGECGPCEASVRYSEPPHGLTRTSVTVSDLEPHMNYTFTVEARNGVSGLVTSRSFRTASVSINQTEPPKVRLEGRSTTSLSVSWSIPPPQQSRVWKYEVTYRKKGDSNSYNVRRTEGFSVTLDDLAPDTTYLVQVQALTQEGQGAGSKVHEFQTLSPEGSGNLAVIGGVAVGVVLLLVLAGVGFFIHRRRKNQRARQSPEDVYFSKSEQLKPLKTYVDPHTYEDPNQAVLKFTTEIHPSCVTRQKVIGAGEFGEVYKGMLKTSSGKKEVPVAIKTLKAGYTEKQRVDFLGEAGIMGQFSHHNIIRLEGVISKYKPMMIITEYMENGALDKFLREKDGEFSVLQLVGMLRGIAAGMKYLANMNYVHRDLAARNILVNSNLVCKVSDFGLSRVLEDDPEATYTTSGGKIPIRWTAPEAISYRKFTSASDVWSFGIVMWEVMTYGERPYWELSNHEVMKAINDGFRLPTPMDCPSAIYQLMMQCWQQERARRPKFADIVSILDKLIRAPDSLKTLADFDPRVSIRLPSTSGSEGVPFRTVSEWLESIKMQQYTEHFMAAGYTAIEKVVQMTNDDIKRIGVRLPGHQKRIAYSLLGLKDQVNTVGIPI
Method in brief: (§2)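 Kinase activity measured either by γ-33P ATP incorporation into immobilized substrate (MBP or pEY) with scintillation counting, or by luciferase-based ATP consumption with pEY. Enzyme 10 or 20 nM; ATP near each kinase's KM (e.g. 10 or 30 μM); 1 h at room temperature, 1% DMSO, 10-point dose-response.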

EGFR = EGFR (Homo sapiens, UniProt P00533); assay: Kinase assay, EGFR (33P-ATP incorporation or luciferase-coupled ATP consumption); format: biochemical
EGFR, sequence (P00533 25-1210, species assumed): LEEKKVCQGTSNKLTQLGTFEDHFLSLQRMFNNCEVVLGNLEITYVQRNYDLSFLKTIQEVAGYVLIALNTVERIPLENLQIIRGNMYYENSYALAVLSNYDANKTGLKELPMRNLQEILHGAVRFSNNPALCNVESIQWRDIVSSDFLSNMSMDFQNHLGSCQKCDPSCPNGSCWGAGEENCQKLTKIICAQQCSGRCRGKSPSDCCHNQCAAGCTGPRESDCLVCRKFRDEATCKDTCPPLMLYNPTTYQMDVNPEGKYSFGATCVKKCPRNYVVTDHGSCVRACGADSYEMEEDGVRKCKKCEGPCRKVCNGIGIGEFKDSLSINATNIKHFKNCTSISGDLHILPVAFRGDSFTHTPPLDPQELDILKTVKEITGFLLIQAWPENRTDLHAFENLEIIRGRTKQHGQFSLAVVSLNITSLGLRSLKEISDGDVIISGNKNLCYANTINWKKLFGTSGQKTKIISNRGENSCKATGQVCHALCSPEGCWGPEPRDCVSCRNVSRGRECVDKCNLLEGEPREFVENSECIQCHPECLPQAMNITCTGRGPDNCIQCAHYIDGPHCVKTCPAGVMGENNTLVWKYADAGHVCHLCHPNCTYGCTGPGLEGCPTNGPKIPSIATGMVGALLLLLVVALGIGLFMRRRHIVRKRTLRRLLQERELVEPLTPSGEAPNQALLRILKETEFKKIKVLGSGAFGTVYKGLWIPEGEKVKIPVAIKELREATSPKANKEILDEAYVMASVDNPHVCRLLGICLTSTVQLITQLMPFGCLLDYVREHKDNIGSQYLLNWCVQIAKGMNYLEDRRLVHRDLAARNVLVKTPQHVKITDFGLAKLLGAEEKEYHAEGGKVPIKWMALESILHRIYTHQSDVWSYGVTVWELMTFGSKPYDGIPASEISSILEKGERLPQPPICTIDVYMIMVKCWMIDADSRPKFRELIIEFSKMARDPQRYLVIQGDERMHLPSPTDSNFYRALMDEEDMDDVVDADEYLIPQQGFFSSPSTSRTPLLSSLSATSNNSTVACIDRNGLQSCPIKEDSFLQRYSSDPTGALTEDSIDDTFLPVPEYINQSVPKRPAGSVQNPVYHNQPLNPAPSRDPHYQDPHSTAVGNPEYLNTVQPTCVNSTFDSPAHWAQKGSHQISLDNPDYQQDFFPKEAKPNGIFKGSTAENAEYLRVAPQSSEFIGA
Method in brief: as §2

[1] = biological target: T1, KDR (baculovirus expressed human KDR kinase domain D807-V1356) (Homo sapiens, UniProt P35968); assay: biochemical
T1 construct: human KDR kinase domain D807-V1356; host or cells: baculovirus expression system
T1 sequence (P35968 807-1356): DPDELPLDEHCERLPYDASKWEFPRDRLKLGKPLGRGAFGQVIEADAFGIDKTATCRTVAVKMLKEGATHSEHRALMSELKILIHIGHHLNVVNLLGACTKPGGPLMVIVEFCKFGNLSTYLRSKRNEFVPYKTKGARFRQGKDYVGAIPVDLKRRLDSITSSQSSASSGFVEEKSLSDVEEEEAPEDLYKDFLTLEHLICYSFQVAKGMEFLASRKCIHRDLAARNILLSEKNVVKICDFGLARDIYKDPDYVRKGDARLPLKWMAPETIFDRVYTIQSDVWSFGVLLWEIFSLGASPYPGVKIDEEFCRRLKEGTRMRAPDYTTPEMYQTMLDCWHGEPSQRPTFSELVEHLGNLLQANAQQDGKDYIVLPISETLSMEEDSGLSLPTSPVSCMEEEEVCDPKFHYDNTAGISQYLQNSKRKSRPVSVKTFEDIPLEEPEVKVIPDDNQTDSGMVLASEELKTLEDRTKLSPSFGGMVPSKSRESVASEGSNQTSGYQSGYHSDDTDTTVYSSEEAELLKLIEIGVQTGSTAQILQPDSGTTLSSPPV
Method in brief: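 Baculovirus human KDR kinase domain (D807–V1356) with ATP near its KM; 10-point dose-response, 4 h at ambient temperature. Activity taken as percent ATP remaining, detected by luciferase–luciferin chemiluminescence.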

FGFR1 = FGFR1 (Homo sapiens, UniProt P11362); assay: Kinase assay, FGFR1 (33P-ATP incorporation or luciferase-coupled ATP consumption); format: biochemical
FGFR1, sequence (P11362 22-822, species assumed): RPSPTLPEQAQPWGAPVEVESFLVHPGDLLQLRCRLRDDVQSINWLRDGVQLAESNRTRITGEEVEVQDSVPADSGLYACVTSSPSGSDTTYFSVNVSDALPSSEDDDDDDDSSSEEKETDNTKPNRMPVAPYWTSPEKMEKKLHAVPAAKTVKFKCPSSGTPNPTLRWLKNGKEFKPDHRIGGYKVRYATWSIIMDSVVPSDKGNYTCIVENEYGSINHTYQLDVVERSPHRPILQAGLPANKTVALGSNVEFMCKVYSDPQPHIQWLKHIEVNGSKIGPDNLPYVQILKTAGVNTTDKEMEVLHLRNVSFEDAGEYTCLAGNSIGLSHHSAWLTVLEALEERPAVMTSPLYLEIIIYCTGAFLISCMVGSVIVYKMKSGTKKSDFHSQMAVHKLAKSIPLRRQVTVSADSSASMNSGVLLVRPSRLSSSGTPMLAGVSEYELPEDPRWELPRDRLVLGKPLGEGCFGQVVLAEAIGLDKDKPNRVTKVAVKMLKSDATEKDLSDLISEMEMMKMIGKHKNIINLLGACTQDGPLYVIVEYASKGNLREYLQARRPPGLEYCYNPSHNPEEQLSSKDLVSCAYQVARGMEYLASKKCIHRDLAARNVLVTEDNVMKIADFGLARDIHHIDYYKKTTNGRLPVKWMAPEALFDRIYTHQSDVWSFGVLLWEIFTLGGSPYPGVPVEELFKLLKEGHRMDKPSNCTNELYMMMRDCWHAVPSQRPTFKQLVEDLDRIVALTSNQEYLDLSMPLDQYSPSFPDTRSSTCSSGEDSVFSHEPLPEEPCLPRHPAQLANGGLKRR
Method in brief: as §2

Fyn = Fyn (Homo sapiens, UniProt P06241); assay: Kinase assay, Fyn; format: biochemical
Protocol: as §1

PDGFR alpha = PDGFR alpha (Homo sapiens, UniProt P16234); assay: Kinase assay, PDGFR alpha (33P-ATP incorporation or luciferase-coupled ATP consumption); format: biochemical; details: read-out: PDGF-R-A IC50
Method in brief: as §2

Flt-1 = Flt-1 (Homo sapiens, UniProt P17948); assay: Kinase assay, Flt-1 (33P-ATP incorporation or luciferase-coupled ATP consumption); format: biochemical; details: read-out: Flt1 IC50
Protocol: Kinase assays were performed by measurement of incorporation of γ-^33P ATP into immobilized myelin basic protein (MBP). […] Plates were washed 3× with 100 μl TBS. […] Compound dilutions were performed in DMSO and added to assay wells to a final DMSO concentration of 1%. Each data point was measured in duplicate, and at least two duplicate assays were performed for each individual compound determination. Enzyme was added to final concentrations of 10 nM or 20 nM, for example. A mixture of unlabeled ATP and γ-^33P ATP was added to start the reaction (2×10^6 cpm of γ-^33P ATP per well (3000 Ci/mmole) and either 10 μM or 30 μM unlabeled ATP, typically. The reactions were carried out for 1 hour at room temperature with shaking. Plates were washed 7× with TBS, followed by the addition of 50 μl/well scintillation fluid (Wallac). Plates were read using a Wallac Trilux counter. This is only one format of such assays, various other formats are possible, as known to one of ordinary skill in the art.
Tyrosine kinase activity is determined by 1) measurement of kinase-dependent ATP consumption by in the presence of a generic substrate such as, polyglutamic acid, tyrosine, 4:1 (pEY), by luciferase/luciferin-mediated chemiluminescence or; 2) incorporation of radioactive phosphate derived from ^33P-ATP into a generic substrate which has been adsorbed onto the well surface of polystyrene microtiter plates. Phosphorylated substrate products are quantified by scintillation spectrometry.
as §1

IRK, sequence (P06213 28-1382): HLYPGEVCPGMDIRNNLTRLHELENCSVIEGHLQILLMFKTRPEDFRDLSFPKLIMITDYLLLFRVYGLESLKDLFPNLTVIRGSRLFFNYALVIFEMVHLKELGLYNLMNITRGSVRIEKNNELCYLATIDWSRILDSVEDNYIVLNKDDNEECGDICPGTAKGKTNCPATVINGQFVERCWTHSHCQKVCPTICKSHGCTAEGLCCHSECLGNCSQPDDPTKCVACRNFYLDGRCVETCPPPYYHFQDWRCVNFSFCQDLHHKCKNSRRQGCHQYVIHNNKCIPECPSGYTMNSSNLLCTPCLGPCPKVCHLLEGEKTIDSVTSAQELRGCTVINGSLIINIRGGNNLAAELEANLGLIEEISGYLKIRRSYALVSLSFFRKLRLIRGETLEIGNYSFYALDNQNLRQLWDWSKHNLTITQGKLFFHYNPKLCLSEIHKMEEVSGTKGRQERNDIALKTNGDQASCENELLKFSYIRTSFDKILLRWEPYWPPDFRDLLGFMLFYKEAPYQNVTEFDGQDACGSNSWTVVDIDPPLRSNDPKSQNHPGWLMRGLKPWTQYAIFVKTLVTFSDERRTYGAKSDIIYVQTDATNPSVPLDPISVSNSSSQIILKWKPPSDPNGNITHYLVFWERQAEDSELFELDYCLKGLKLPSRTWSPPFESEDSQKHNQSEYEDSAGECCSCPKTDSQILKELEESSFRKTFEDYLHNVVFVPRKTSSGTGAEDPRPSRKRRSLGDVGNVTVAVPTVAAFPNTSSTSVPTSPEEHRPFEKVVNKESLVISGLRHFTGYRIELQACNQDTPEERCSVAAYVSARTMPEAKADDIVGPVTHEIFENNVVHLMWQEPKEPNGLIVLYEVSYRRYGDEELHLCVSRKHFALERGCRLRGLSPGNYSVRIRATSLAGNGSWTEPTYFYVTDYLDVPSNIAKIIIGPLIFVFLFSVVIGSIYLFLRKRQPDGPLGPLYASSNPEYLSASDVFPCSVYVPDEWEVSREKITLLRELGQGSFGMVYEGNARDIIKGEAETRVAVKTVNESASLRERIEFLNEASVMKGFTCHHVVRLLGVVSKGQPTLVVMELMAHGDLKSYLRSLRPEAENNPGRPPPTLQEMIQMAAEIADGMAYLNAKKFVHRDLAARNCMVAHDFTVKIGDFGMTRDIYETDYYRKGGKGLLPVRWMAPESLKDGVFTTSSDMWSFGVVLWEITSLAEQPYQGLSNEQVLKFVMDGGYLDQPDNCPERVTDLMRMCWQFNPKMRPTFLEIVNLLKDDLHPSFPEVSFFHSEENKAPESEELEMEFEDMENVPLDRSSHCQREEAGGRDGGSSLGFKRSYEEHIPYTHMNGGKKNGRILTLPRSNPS

SMILES	IC50 (IRK) [nM]	IC50 (EphA2) [nM]	IC50 (EGFR) [nM]	IC50 [1] [nM]	IC50 (FGFR1) [nM]	IC50 (Fyn) [nM]	IC50 (PDGFR alpha) [nM]	IC50 (Flt-1) [nM]
CCN1CCC(Nc2ccc3c(c2)/C(=C(\c2cccc(OC)c2)c2nc4ccccc4[nH]2)C(=O)N3)CC1 [Entry 26, (3Z)-3-{1H-benzimidazol-2-yl [3-(methyloxy)phenyl]methylidene}-5-[(1-ethylpiperidin-4-yl)amino]-1,3-dihydro-2H-indol-2-one]	500 to 5000	500 to 5000	50 to 500	< 50	< 50	< 50	< 50	< 50
CCN1CCC(Nc2ccc3c(c2)/C(=C(\c2cccc(Cl)c2)c2nc4ccccc4[nH]2)C(=O)N3)CC1 [Entry 27, (3Z)-3-[1H-benzimidazol-2-yl(3-chlorophenyl)methylidene]-5-[(1-ethylpiperidin-4-yl)amino]-1,3-dihydro-2H-indol-2-one]	50 to 500	50 to 500	50 to 500	< 50	< 50	< 50	< 50	< 50
CS(=O)(=O)N1CCC(Nc2ccc3c(c2)/C(=C(\c2ccccc2)c2nc4ccccc4[nH]2)C(=O)N3)CC1 [Entry 30, (3Z)-3-[1H-benzimidazol-2-yl(phenyl)methylidene]-5-{[1-(methylsulfonyl)piperidin-4-yl]amino}-1,3-dihydro-2H-indol-2-one]	500 to 5000	500 to 5000	500 to 5000	50 to 500	–	500 to 5000	500 to 5000	500 to 5000
O=C1Nc2ccc(NC3CC4CCC(C3)N4)cc2/C1=C(\c1ccccc1)c1nc2ccccc2[nH]1 (stereo not shown) [Entry 31, (3Z)-5-(8-azabicyclo[3.2.1]oct-3-ylamino)-3-[1H-benzimidazol-2-yl(phenyl)methylidene]-1,3-dihydro-2H-indol-2-one]	500 to 5000	500 to 5000	500 to 5000	50 to 500	–	50 to 500	50 to 500	500 to 5000
CCN1CCC(Oc2ccc3c(c2)/C(=C(\c2cccc(OC)c2)c2nc4ccccc4[nH]2)C(=O)N3)CC1 [Entry 32, (3Z)-3-{1H-benzimidazol-2-yl[3-(methyloxy)phenyl]methylidene}-5-[(1-ethylpiperidin-4-yl)oxy]-1,3-dihydro-2H-indol-2-one]	500 to 5000	500 to 5000	500 to 5000	< 50	–	< 50	< 50	50 to 500
CCN1CCC(Oc2ccc3c(c2)/C(=C(\c2cc(F)cc(F)c2)c2nc4ccccc4[nH]2)C(=O)N3)CC1 [Entry 33, (3Z)-3-[1H-benzimidazol-2-yl(3,5-difluorophenyl)methylidene]-5-[(1-ethylpiperidin-4-yl)oxy]-1,3-dihydro-2H-indol-2-one]	500 to 5000	500 to 5000	500 to 5000	< 50	50 to 500	< 50	< 50	50 to 500
O=C1Nc2ccc(OC3CCN(Cc4ccccc4)CC3)cc2/C1=C(\c1ccccc1)c1nc2ccccc2[nH]1 [Entry 34, (3Z)-3-[1H-benzimidazol-2-yl(phenyl)methylidene]-5-{(1-(phenylmethyl)piperidin-4-yl]oxy}-1,3-dihydro-2H-indol-2-one]	500 to 5000	500 to 5000	500 to 5000	< 50	–	< 50	< 50	500 to 5000
CCN1CCC(Oc2ccc3c(c2)/C(=C(\c2cccc(Cl)c2)c2nc4ccccc4[nH]2)C(=O)N3)CC1 [Entry 35, (3Z)-3-[1H-benzimidazol-2-yl(3-chlorophenyl)methylidene]-5-[(1-ethylpiperidin-4-yl)oxy]-1,3-dihydro-2H-indol-2-one]	500 to 5000	500 to 5000	500 to 5000	< 50	< 50	< 50	< 50	50 to 500
COCCN1CCC(Oc2ccc3c(c2)/C(=C(\c2cc(F)cc(F)c2)c2nc4ccccc4[nH]2)C(=O)N3)CC1 [Entry 36, (3Z)-3-[1H-benzimidazol-2-yl(3,5-difluorophenyl)methylidene]-5-({1-[2-(methyloxy)ethyl]piperidin-4-yl}oxy)-1,3-dihydro-2H-indol-2-one]	500 to 5000	500 to 5000	500 to 5000	< 50	50 to 500	< 50	< 50	500 to 5000
COCCN1CCC(Oc2ccc3c(c2)/C(=C(\c2cccc(Cl)c2)c2nc4ccccc4[nH]2)C(=O)N3)CC1 [Entry 37, (3Z)-3-[1H-benzimidazol-2-yl(3-chlorophenyl)methylidene]-5-({1-[2-(methyloxy)ethyl]piperidin-4-yl)oxy)-1,3-dihydro-2H-indol-2-one]	500 to 5000	500 to 5000	50 to 500	< 50	50 to 500	< 50	< 50	500 to 5000
COCCN1CCC(Nc2ccc3c(c2)/C(=C(\c2cccc(Cl)c2)c2nc4ccccc4[nH]2)C(=O)N3)CC1 [Entry 38, (3Z)-3-[1H-benzimidazol-2-yl(3-chlorophenyl)methylidene]-5-({1-[2-(methyloxy)ethyl]piperidin-4-yl}amino)-1,3-dihydro-2H-indol-2-one]	500 to 5000	500 to 5000	500 to 5000	< 50	< 50	< 50	< 50	50 to 500
COCCN1CCC(Nc2ccc3c(c2)/C(=C(\c2cccc(OC)c2)c2nc4ccccc4[nH]2)C(=O)N3)CC1 [Entry 39, (3Z)-3-{1H-benzimidazol-2-yl[3-(methyloxy)phenyl]methylidene}-5-({1-[2-(methyloxy)ethyl]piperidin-4-yl}amino)-1,3-dihydro-2H-indol-2-one]	500 to 5000	500 to 5000	500 to 5000	< 50	< 50	< 50	< 50	50 to 500
COCCN1CCC(Nc2ccc3c(c2)/C(=C(\c2cccc(Cl)c2)c2ncc[nH]2)C(=O)N3)CC1 [Entry 40, (3Z)-3-[(3-chlorophenyl)(1H-imidazol-2-yl)methylidene]-5-({1-[2-(methyloxy)ethyl]piperidin-4-yl}amino)-1,3-dihydro-2H-indol-2-one]	500 to 5000	500 to 5000	500 to 5000	< 50	< 50	< 50	< 50	50 to 500
COCCN1CCC(Nc2ccc3c(c2)/C(=C(\c2cc(F)cc(F)c2)c2nc4ccccc4[nH]2)C(=O)N3)CC1 [Entry 42]	> 5000	500 to 5000	50 to 500	< 50	< 50	< 50	< 50	50 to 500
CCN1CCC(N(C)c2ccc3c(c2)/C(=C(\c2cccc(Cl)c2)c2nc4ccccc4[nH]2)C(=O)N3)CC1 [Entry 43]	500 to 5000	500 to 5000	500 to 5000	< 50	50 to 500	50 to 500	50 to 500	500 to 5000
CCN1CCC(Oc2ccc3c(c2)/C(=C(\c2cccc(Cl)c2)c2ncc[nH]2)C(=O)N3)CC1 [Entry 44, (3Z)-3-[(3-chlorophenyl)(1H-imidazol-2-yl)methylidene]-5-[(1-ethylpiperidin-4-yl)oxy]-1,3-dihydro-2H-indol-2-one]	500 to 5000	500 to 5000	500 to 5000	< 50	50 to 500	50 to 500	50 to 500	500 to 5000
